# Experimental data published in PubChem BioAssay AID179 (DTP/NCI, 2004).
# Calls of active or inactive are those of the source.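 How the source made its calls: active means compounds giving half or more protection of infected cells from virus-caused growth loss, again on retest; inactive means the rest.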
# System: CEM cells HIV-1 protection, formazan growth assay
# Assay: NCI AIDS Antiviral Assay
# Details: for IC50: measured here: growth of uninfected CEM cells
# In short: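 Protection of CEM cells against HIV-1 measured as cell growth via soluble formazan read-out, with five concentrations tested on both infected and uninfected cells; failure to protect may reflect toxicity.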
SMILES,EC50,IC50,outcome
O=[N+]([O-])c1ccccc1N=Cc1ccccc1O,> 200 µM,> 200 µM,
NNC(=Nc1ccccc1)SCc1ccccc1,,,inactive
Cc1nnc(N)nc1C/C=C/C(C)Sc1ccc(Cl)cc1 (centres undefined),> 200 µM,6.61 µM,
COC(=O)C1=C(C)NC2=C(C(=O)CCC2)C1CCS(C)=O (centres undefined),> 200 µM,> 200 µM,
CCOC(=O)CC1(Cc2ccc(OCc3ccccc3)cc2)C(=O)OC(c2ccccc2)N1C(=O)c1ccccc1 (centres undefined),> 200 µM,> 200 µM,
OCC1(C(F)(F)F)OC(n2cncn2)CC1O (centres undefined),> 200 µM,> 200 µM,
CON(C)c1nc(N)c(C#N)c(C#N)c1C#N,> 200 µM,35.5 µM,
O=c1oc2c(-c3c(O)c(=O)oc4ccccc34)cc(O)cc2s1,> 209 µM,97.7 µM,
Nc1ccc2c(c1)C(N)c1ccccc1-2 (centres undefined),> 200 µM,55 µM,
Nc1ccc2c(SCC(=O)Nc3ccccc3-c3ccccc3NC(=O)CSc3c4ccccc4nc4cc(N)ccc34)c3ccccc3nc2c1,> 7.24 µM,> 7.24 µM,
COc1ccc(C(=O)C(C(=O)CC(=O)Nc2cccc(C(F)(F)F)c2)c2ccc(OC)cc2)cc1 (centres undefined),> 14.8 µM,> 14.8 µM,
CCCCC=C(c1cc(Cl)c(OC)c(C(=O)OC)c1)c1cc(Cl)c(OC)c(C(=O)OC)c1,> 5.62 µM,> 5.62 µM,
O=C1CSc2nc3ccccc3n2/C=N\N1,> 200 µM,> 200 µM,
COC(=O)/C=C\C(C#N)(C#N)N=Cc1ccc(Br)cc1,> 20 µM,1.02 µM,
CCC12CCCN(Cc3ccccc3)C1c1c(n(C)c3ccccc13)C(CO)C2 (centres undefined),> 25.7 µM,> 25.7 µM,
CC(=O)OC12CC(C(F)(F)F)(C(F)(F)F)OC1(OC(C)=O)CC(C(F)(F)F)(C(F)(F)F)O2 (centres undefined),,,inactive
NCCCCN(CCCN)C(=O)OCc1ccccc1,> 200 µM,> 200 µM,
Nc1nc2c(ncn2CC2OC(CO)C(CO)O2)c(=O)[nH]1 (centres undefined),> 115 µM,> 115 µM,
CC(=O)O[C@H]1CC(C)(C)C(=C=C/C(C)=C/C=C/C=C/C=C(C)/C=C2C=C(/C=C/[C@@]34O[C@]3(C)C[C@@H](O)CC4(C)C)C(=O)O/2)[C@](C)(O)C1,> 151 µM,6.92 µM,
CC[C@H](C)[C@H](NC(=O)N(CCC#N)CCN(CCN(C(=O)N[C@@H](Cc1ccccc1)C(=O)OC)c1ccccc1)C(=O)N[C@H](C(=O)OC)C(C)C)C(=O)OC,,,inactive
CC(=O)O[C@H]1C#C/C=C\C#CC[C@@H]2C(=O)N(C(=O)OC(C)(C)C)[C@@H]12,> 20 µM,1.12 µM,

SMILES,EC50,IC50,outcome
COCCN1C(=O)C(NC(C)=O)[C@H]1COC(C)(C)C (some centres undefined),> 661 µM,> 661 µM,
O=C1NCCCNCCCNCCCNC(=O)c2cccc1n2,> 200 µM,186 µM,
Cc1cc(O)c2c(c1)C[C@@H](O)C1=C2C(=O)c2c(O)ccc(OC3CC(O)C(OC4CC(OC5CCC(OC6CC(O)C(OC7CC(OC8CCC(O)C(C)O8)C(O)C(C)O7)C(C)O6)C(C)O5)C(O)C(C)O4)C(C)O3)c2C1=O (some centres undefined),> 43.7 µM,0.2 µM,
O=S(c1ccc(Cl)cc1)S(=O)c1ccc(Cl)cc1 (centres undefined),> 22.4 µM,18.2 µM,
Cc1c(C(c2[nH]c3ccccc3c2C)c2[nH]c3ccccc3c2C)[nH]c2ccccc12,0.0631 µM,13.5 µM,
Cc1ccc(N=Nc2cc(=O)[nH]c(=O)[nH]2)cc1C,> 200 µM,3.98 µM,
O=c1c2cccnc2ncn1CCCN1CCCCC1,,,inactive
Cc1c2ccccc2c(C)c2c3c(ccc12)C(=O)C=CC3=O,,,inactive
O=C(CN1CCCCC1)c1ccc(CCc2ccc(C(=O)CN3CCCCC3)cc2)cc1,> 200 µM,95.5 µM,
C[N+]1(CCCl)CCc2cc([N+](=O)[O-])ccc2C1 (centres undefined),> 200 µM,> 200 µM,
CC[P+](C)(Cc1ccccc1)c1ccccc1 (centres undefined),0.0631 µM,81.3 µM,
Cc1cc2c(cc1C)NS(=O)(=O)N2,> 447 µM,9.77 µM,
COc1ccc(NC(=O)CSc2nc(C)nc3c2sc(=S)n3-c2ccccc2)cc1,> 200 µM,> 200 µM,
CCCCC1(OC(=O)CCC(=O)O)CCC2(CCC(C)C(C/C=C(C)/C=C/C(O)C(C)/C=C/C(=O)O)O2)OC1CC/C(C)=C/C(=O)O (centres undefined),> 3.8 µM,1.29 µM,
CCOc1ccccc1N=Nc1c(-c2ccccc2)nn(C(=O)CC(=O)Nc2cccc(C)c2)c1-c1ccccc1,> 25.1 µM,> 25.1 µM,
O=c1onc2c3ccccc3ncn12,> 200 µM,> 200 µM,
CCC1=C(CC2NCCc3ccccc32)CC2c3cc(OC)c(OC)cc3CCN2C1 (centres undefined),,,inactive
CCOP(=S)(OCC)Oc1ccc2c(C)c(Cl)c(=O)oc2c1,> 37.2 µM,> 37.2 µM,
COc1c2ccoc2nc2c(OC)c(OCC(O)C(C)(C)O)ccc12 (centres undefined),> 513 µM,> 513 µM,
O=C(O)[C@@H]1CSC(C(O)CO)N1 (some centres undefined),> 200 µM,> 200 µM,
COc1ccc(C/C=C(\C)CCO)cc1,> 200 µM,126 µM,

SMILES,EC50,IC50,outcome
NC1=NS(=O)(=O)N=C(N)C1=Cc1ccc([N+](=O)[O-])o1,> 871 µM,4.9 µM,
C/C(Cl)=N\OC(=O)Nc1ccccc1C(F)(F)F,> 200 µM,33.1 µM,
O=C(CC(=O)N(C(=O)c1ccccc1)c1ccc(Cl)cc1)N/N=C\c1cc(N=Nc2ccccc2Cl)ccc1O,> 100 µM,> 100 µM,
CCOC(=O)C1C/C2=C(/CCCCCCCCCC2)SCCCS1 (centres undefined),> 200 µM,26.9 µM,
CC1=C(C(=O)Nc2ccccc2)C(c2ccc([N+](=O)[O-])cc2)C(C(=O)Nc2ccccc2)=C(C)N1,> 15.5 µM,> 15.5 µM,
CCOc1ccc2nc(NC(=O)C(=O)C(C#N)CC(C)(C)C=O)sc2c1 (centres undefined),> 479 µM,263 µM,
COC(=O)CP(=O)(OCC(F)(F)F)OCC(F)(F)F,> 794 µM,437 µM,
O=c1ccn([C@@H]2O[C@@H]3COC(c4c(F)cccc4Cl)N(O)[C@@H]3C2O)c(=O)[nH]1 (some centres undefined),> 200 µM,> 200 µM,
O=c1[nH]c(=O)n(C2OC(CO)C(O)C2O)c(NNc2ccccc2)c1NNc1ccccc1 (centres undefined),145 µM,> 200 µM,
COc1cccc(/C=C/C(=O)c2ccccc2)c1,> 57.5 µM,11 µM,
O=[N+]([O-])/C=C/c1cc2ccc3ccccc3c2[nH]1,> 200 µM,1.02 µM,
CCOC(=O)/C(=N/Nc1ccccc1)N1C(=S)C=C(C)NN(C)C1=S,> 200 µM,> 200 µM,
C[C@]12CC[C@H](O)CC1=CC[C@@H]1C2CC[C@]2(C)Nc3[nH]ncc3CC12 (some centres undefined),,,inactive
CCN(CC)CCNc1ccc(C)c2sc3ccccc3c(=O)c12,> 200 µM,11 µM,
C=COCCCOc1ccccc1,> 200 µM,> 200 µM,
COC(=O)Cc1ccc(COC(=O)c2cc(C(=CCC[C@H]3CC[C@@]4(C)[C@@H](CC[C@@H]5[C@@H]4CC[C@]4(C)[C@@H]([C@H](C)CCCC(C)C)CC[C@@H]54)C3)c3cc(Cl)c(OCc4ccc(CC(=O)OC)cc4)c(C(=O)OCc4ccc(CC(=O)OC)cc4)c3)cc(Cl)c2OCc2ccc(CC(=O)OC)cc2)cc1,> 200 µM,> 200 µM,
c1ccc(CCC2=Nc3ccccc3CO2)cc1,> 110 µM,> 110 µM,
Cc1sc2nc(N(C)C)oc(=O)c2c1C,> 200 µM,75.9 µM,
O=C(CSc1nc(-c2ccccc2)c(-c2ccccc2)[nH]1)N/N=C/c1ccc([N+](=O)[O-])cc1,> 21.9 µM,10 µM,
Cc1ccc2c(c1)C1(c3ccc(Cl)cc3)Oc3ccc(C)cc3C(c3ccc(Cl)cc3)(O2)O1,> 75.9 µM,> 75.9 µM,
CCN(CC)CSc1nc2ccccc2s1,,,inactive

SMILES,EC50,IC50,outcome
COc1c2c(cc3c1OCO3)[C@]13C=C[C@H](OC)C[C@H]1N(C2)CC3O (some centres undefined),> 126 µM,> 126 µM,
C=CC1(C)CCC2C(=CCC3C(C)(COC4OC(CO)C(O)C(O)C4O)C(O)CCC23C)C1 (centres undefined),> 200 µM,> 100 µM,
CN(C)c1ccc(/C=C/c2ccc(/C=C/c3ccc(N(C)C)cc3)cc2)cc1,,,inactive
O=C1c2cccc3cccc(c23)C(=O)N1CCO,> 200 µM,13.8 µM,
CC1Oc2c(c(O)cc3oc(=O)cc(-c4ccccc4)c23)C(=O)C1C (centres undefined),,,inactive
NC(=S)N/N=C/C(O[C@@H](/C=N/NC(N)=S)CO)n1cnc2c(N)ncnc21 (some centres undefined),> 437 µM,89.1 µM,
O=C(O)c1ccc2c(n1)-c1nc3nc4c(cc3cc1CC2)CCc1ccc(C(=O)O)nc1-4,> 200 µM,21.9 µM,
Cn1c(C2CCCc3c2c2ccccc2n3C)cc2ccccc21 (centres undefined),> 16.6 µM,> 16.6 µM,
O=C(/C=C/c1ccccc1)/C=C/c1ccccc1,,,inactive
CC(=O)O[C@]1(C)OC(=O)[C@@H](CC(C)C)N1[N+](=O)[O-],,,inactive
O=[N+]([O-])c1ccc[c]([Sb](=[O])([OH])[OH])c1,> 398 µM,> 200 µM,
CCOC1CC2OC(=O)C1C=C2C(=O)OC (centres undefined),,,inactive
COC1=CC(=O)C2C(C1=O)C(c1ccc(OC)c(OC)c1)[C@H]2C (some centres undefined),> 12 µM,> 12 µM,
COc1cc(/C=C2\C(=O)N(c3cccc([N+](=O)[O-])c3)C(c3ccccc3)S2(=O)=O)cc(OC)c1OC (centres undefined),,,inactive
CC1(C)CC(=O)C(CC(C(=O)C(=O)Nc2cc(C(F)(F)F)ccc2Cl)C(=O)c2ccco2)C(=O)C1 (centres undefined),> 51.3 µM,42.7 µM,
CC(C)(C)OC(=O)C1C(=O)C(C(=O)OC(C)(C)C)C23CCCCCCCCCCC12C(C(=O)OC(C)(C)C)C(=O)C3C(=O)OC(C)(C)C (centres undefined),> 18.6 µM,> 18.6 µM,
Cc1cc2c(c(C=Nc3ccc([N+](=O)[O-])cc3)c1)OC1(C=C2)Oc2ccccc2C(=O)N1C (centres undefined),> 200 µM,22.9 µM,
CNS(=O)(=O)NN(C)S(=O)(=O)c1ccc(C)cc1,> 617 µM,> 200 µM,
Cc1noc2c1CC(=O)c1ccccc1OC2,> 389 µM,224 µM,
N#Cc1cccc(C=NC23CC4CC(CC(C4)C2)C3)c1,> 97.7 µM,74.1 µM,
Cc1nn(-c2ccc([N+](=O)[O-])cc2)c2c1C(C)(C)C(C#N)=C(N)O2,> 200 µM,> 200 µM,
